US12331040B2 (Karyopharm Therapeutics Inc., priority 2013, dated 2025)
Where two headings read alike, the source gives them in different places.

Legend:
Experiment in all cases: MTT cell proliferation assay
Type in all cases: cell-based
3T3 cells = settings: Mus musculus, NIH3T3, approximately 64-72 hours incubation
In short: (§1)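 Cytotoxicity was measured by MTT: OD490 of the solubilized formazan after roughly 4 h with MTT reagent, reported as mean percent inhibition relative to the negative control. Test compounds covered eight concentrations between 1 nM and 30 μM, added to 5,000–10,000 cells per well that had attached overnight.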

MS751 cells = settings: Homo sapiens, approximately 64-72 hours incubation
In short: as §1

Z138 cells = settings: Homo sapiens, Z-138, Z138 cells, approximately 64-72 hours incubation
In short: as §1

[1] = MS751, MS751 cells, read-out: MTT Assay IC50, MS-751
[2] = read-out: MTT Assay IC50, Z-138
[3] = MS751, MS751 cells, read-out: MTT Assay IC50 MS-751

`Nc1ccc(/C=C/C(=O)NCc2cc3cc(-c4ccc(C(=O)N5CCC(F)(F)CC5)cn4)c(C(F)(F)F)cc3o2)cn1` [Compound 664, (E)-3-(6-aminopyridin-3-yl)-N-((5-(5-(4,4-difluoropiperidine-1-carbonyl)pyridin-2-yl)-6-(trifluoromethyl)benzofuran-2-yl)methyl)acrylamide] was tested, and the IC50 (3T3 cells; read-out: MTT Assay IC50, 3T3) was > 10 µM, the IC50 (MS751 cells; [1]) was > 10 µM and the IC50 (Z138 cells; [2]) was > 10 µM.

In the case of `Nc1ccc(/C=C/C(=O)NCc2cc3cc(-c4ccc(C(=O)N5CCC(F)(F)CC5)cc4F)cc(-c4ccc(F)cc4)c3o2)cn1` [Compound 751, (E)-3-(6-aminopyridin-3-yl)-N-((5-(4-(4,4-difluoropiperidine-1-carbonyl)-2-fluorophenyl)-7-(4-fluorophenyl)benzofuran-2-yl)methyl)acrylamide], the IC50 (3T3 cells; read-out: MTT Assay IC50, 3T3) is reported as 0.1 to 5 µM, the IC50 (MS751 cells; [1]) is reported as < 0.1 µM and the IC50 (Z138 cells; [2]) is reported as < 0.1 µM.

`Nc1ccc(/C=C/C(=O)NCc2cc3cc(-c4ccc(C(=O)N5CC6(COC6)C5)cn4)cc(C(F)(F)F)c3o2)cn1` [Compound 625, (E)-N-((5-(5-(2-oxa-6-azaspiro[3.3]heptane-6-carbonyl)pyridin-2-yl)-7-(trifluoromethyl)benzofuran-2-yl)methyl)-3-(6-aminopyridin-3-yl)acrylamide] was tested, and the IC50 (3T3 cells; read-out: MTT Assay IC50 3T3) was 0.1 to 5 µM, the IC50 (MS751 cells; [3]) was < 0.1 µM and the IC50 (Z138 cells; read-out: MTT Assay IC50 Z-138) was < 0.1 µM.

`Nc1ccc(/C=C/C(=O)NCc2cc3cc(-c4ccc(C(=O)N5CCC(F)(F)CC5)cc4)cc(-c4cccnc4)c3o2)cn1` [Compound 724, (E)-3-(6-aminopyridin-3-yl)-N-((5-(4-(4,4-difluoropiperidine-1-carbonyl)phenyl)-7-(pyridin-3-yl)benzofuran-2-yl)methyl)acrylamide] was tested, and the IC50 (3T3 cells; read-out: MTT Assay IC50, 3T3) was 0.1 to 5 µM, the IC50 (MS751 cells; [1]) was < 0.1 µM and the IC50 (Z138 cells; [2]) was < 0.1 µM.

In the case of `O=C(/C=C/c1ccc(C(F)(F)F)nc1)NCc1cc2cc(-c3ccc(C(=O)N4CCOCC4)cc3)cc(Cl)c2o1` [Compound 536, (E)-N-((7-Chloro-5-(4-(morpholine-4-carbonyl)phenyl)benzofuran-2-yl)methyl)-3-(6-(trifluoromethyl)pyridin-3-yl)acrylamide], the IC50 (3T3 cells; read-out: MTT Assay IC50 3T3) is reported as > 10 µM, the IC50 (MS751 cells; [3]) is reported as > 10 µM and the IC50 (Z138 cells; read-out: MTT Assay IC50 Z-138) is reported as 5 to 10 µM.

For `Nc1ccc(/C=C/C(=O)NCc2cc3cc(-c4ccc(C(=O)N5CCC(C(F)(F)F)CC5)cn4)cc(C(F)(F)F)c3o2)cn1` [Compound 615, (E)-3-(6-aminopyridin-3-yl)-N-((7-(trifluoromethyl)-5-(5-(4-(trifluoromethyl)piperidine-1-carbonyl)pyridin-2-yl)benzofuran-2-yl)methyl)acrylamide], the IC50 (3T3 cells; read-out: MTT Assay IC50 3T3) was > 10 µM, the IC50 (MS751 cells; [3]) was 0.1 to 5 µM and the IC50 (Z138 cells; read-out: MTT Assay IC50 Z-138) was 0.1 to 5 µM.

`O=C(/C=C/c1cccnc1)NCc1cc2cc(-c3ccc(C(=O)N4CC5(COC5)C4)cc3)cc(C(F)(F)F)c2o1` [Compound 688, (E)-N-((5-(4-(2-oxa-6-azaspiro[3.3]heptane-6-carbonyl)phenyl)-7-(trifluoromethyl)benzofuran-2-yl)methyl)-3-(pyridin-3-yl)acrylamide] gave an IC50 (3T3 cells; read-out: MTT Assay IC50, 3T3) of 0.1 to 5 µM, an IC50 (MS751 cells; [1]) of 0.1 to 5 µM and an IC50 (Z138 cells; [2]) of 0.1 to 5 µM.

In the case of `Nc1ccc(/C=C/C(=O)NCc2cc3cc(-c4ccc(C(=O)N5CCCCC5)cc4)cc(Cl)c3o2)cn1` [Compound 600, (E)-3-(6-aminopyridin-3-yl)-N-((7-chloro-5-(4-(piperidine-1-carbonyl)phenyl)benzofuran-2-yl)methyl)acrylamide], the IC50 (3T3 cells; read-out: MTT Assay IC50 3T3) is reported as > 10 µM, the IC50 (MS751 cells; [3]) is reported as 5 to 10 µM and the IC50 (Z138 cells; read-out: MTT Assay IC50 Z-138) is reported as 0.1 to 5 µM.

`Nc1ccc(/C=C/C(=O)NCc2cc3cc(C4CC4C(=O)N4CCC(F)(F)CC4)cc(C(F)(F)F)c3o2)cn1` (stereo not drawn) [Compound 695, (E)-3-(6-aminopyridin-3-yl)-N-((5-(2-(4,4-difluoropiperidine-1-carbonyl)cyclopropyl)-7-(trifluoromethyl)benzofuran-2-yl)methyl)acrylamide] was tested, and the IC50 (3T3 cells; read-out: MTT Assay IC50, 3T3) was > 10 µM, the IC50 (MS751 cells; [1]) was 0.1 to 5 µM and the IC50 (Z138 cells; [2]) was 0.1 to 5 µM.

With `Nc1ccc(/C=C/C(=O)NCc2cc3cc(-c4ccc(C(=O)N5CC6(CCO6)C5)cn4)cc(C(F)(F)F)c3o2)cn1` [Compound 634, (E)-N-((5-(5-(1-oxa-6-azaspiro[3.3]heptane-6-carbonyl)pyridin-2-yl)-7-(trifluoromethyl)benzofuran-2-yl)methyl)-3-(6-aminopyridin-3-yl)acrylamide] the IC50 (3T3 cells; read-out: MTT Assay IC50 3T3) was > 10 µM, the IC50 (MS751 cells; [3]) was 0.1 to 5 µM and the IC50 (Z138 cells; read-out: MTT Assay IC50 Z-138) was 0.1 to 5 µM.

With `Nc1ccc(/C=C/C(=O)NCc2cc3cc(-c4ccc(C(=O)N5CCC(F)(F)CC5)cc4)cc(-c4ccc(F)nc4F)c3o2)cn1` [Compound 754, (E)-3-(6-aminopyridin-3-yl)-N-((5-(4-(4,4-difluoropiperidine-1-carbonyl)phenyl)-7-(2,6-difluoropyridin-3-yl)benzofuran-2-yl)methyl)acrylamide] the IC50 (3T3 cells; read-out: MTT Assay IC50, 3T3) was 0.1 to 5 µM, the IC50 (MS751 cells; [1]) was < 0.1 µM and the IC50 (Z138 cells; [2]) was < 0.1 µM.

For `Nc1ccc(/C=C/C(=O)NCc2cc3cc(-c4cccc(C(=O)N5CCOCC5)c4)cc(C(F)(F)F)c3o2)cn1` [Compound 717, (E)-3-(6-aminopyridin-3-yl)-N-((5-(3-(morpholine-4-carbonyl)phenyl)-7-(trifluoromethyl)benzofuran-2-yl)methyl)acrylamide], the IC50 (3T3 cells; read-out: MTT Assay IC50, 3T3) was > 10 µM, the IC50 (MS751 cells; [1]) was 0.1 to 5 µM and the IC50 (Z138 cells; [2]) was < 0.1 µM.

`Nc1ccc(/C=C/C(=O)NCc2cc3cc(-c4ccc(C(=O)N5CCNCC5)cc4)cc(C(F)(F)F)c3o2)cn1` [Compound 564, (E)-3-(6-aminopyridin-3-yl)-N-((5-(4-(piperazine-1-carbonyl)phenyl)-7-(trifluoromethyl)benzofuran-2-yl)methyl)acrylamide] was tested, and the IC50 (3T3 cells; read-out: MTT Assay IC50 3T3) was > 10 µM, the IC50 (MS751 cells; [3]) was < 0.1 µM and the IC50 (Z138 cells; read-out: MTT Assay IC50 Z-138) was < 0.1 µM.

With `Nc1ccc(/C=C/C(=O)NCc2cc3cc(-c4ccc(C(=O)N5CC[C@H](F)C5)cc4)cc(Cl)c3o2)cn1` [Compound 528, (S,E)-3-(6-aminopyridin-3-yl)-N-((7-chloro-5-(4-(3-fluoropyrrolidine-1-carbonyl)phenyl)benzofuran-2-yl)methyl)acrylamide] the IC50 (3T3 cells; read-out: MTT Assay IC50 3T3) was > 10 µM, the IC50 (MS751 cells; [3]) was > 10 µM and the IC50 (Z138 cells; read-out: MTT Assay IC50 Z-138) was > 10 µM.

For `Nc1ccc(/C=C/C(=O)NCc2cc3cc(-c4ccc(C(=O)NNc5ccccn5)cc4)cc(C(F)(F)F)c3o2)cn1` [Compound 518, (E)-3-(6-aminopyridin-3-yl)-N-((5-(4-(2-(pyridin-2-yl)hydrazinecarbonyl)phenyl)-7-(trifluoromethyl)benzofuran-2-yl)methyl)acrylamide], the IC50 (3T3 cells; read-out: MTT Assay IC50 3T3) was > 10 µM, the IC50 (MS751 cells; MS751 cells, read-out: MTT Assay IC50 MS-751) was 0.1 to 5 µM and the IC50 (Z138 cells; read-out: MTT Assay IC50 Z-138) was 0.1 to 5 µM.

For `Nc1ccc(/C=C/C(=O)NCc2cc3cc(-c4ccc(C(=O)N5CCC(F)(F)CC5)cn4)cc(-c4ccc(F)cc4)c3o2)cn1` [Compound 665, (E)-3-(6-aminopyridin-3-yl)-N-((5-(5-(4,4-difluoropiperidine-1-carbonyl)pyridin-2-yl)-7-(4-fluorophenyl)benzofuran-2-yl)methyl)acrylamide], the IC50 (3T3 cells; read-out: MTT Assay IC50, 3T3) was 0.1 to 5 µM, the IC50 (MS751 cells; [1]) was < 0.1 µM and the IC50 (Z138 cells; [2]) was < 0.1 µM.

With `Nc1ccc(/C=C/C(=O)NCc2cc3cc(-c4ccc(F)c(S(=O)(=O)N5CCOCC5)c4)cc(Cl)c3o2)cn1` [Compound 636, (E)-3-(6-aminopyridin-3-yl)-N-((7-chloro-5-(4-fluoro-3-(morpholinosulfonyl)phenyl)benzofuran-2-yl)methyl)acrylamide] the IC50 (3T3 cells; read-out: MTT Assay IC50 3T3) was > 10 µM, the IC50 (MS751 cells; [3]) was 0.1 to 5 µM and the IC50 (Z138 cells; read-out: MTT Assay IC50 Z-138) was 0.1 to 5 µM.

With `CC1(C)CNCCN1C(=O)c1ccc(-c2cc(C(F)(F)F)c3oc(CNC(=O)/C=C/c4ccc(N)nc4)cc3c2)cc1` [Compound 575, (E)-3-(6-aminopyridin-3-yl)-N-((5-(4-(2,2-dimethylpiperazine-1-carbonyl)phenyl)-7-(trifluoromethyl)benzofuran-2-yl)methyl)acrylamide] the IC50 (3T3 cells; read-out: MTT Assay IC50 3T3) was > 10 µM, the IC50 (MS751 cells; [3]) was 0.1 to 5 µM and the IC50 (Z138 cells; read-out: MTT Assay IC50 Z-138) was 0.1 to 5 µM.

For `Nc1ccc(/C=C/C(=O)NCc2cc3cc(-c4ccc(C(=O)N5CCC(F)(F)CC5)s4)cc(C(F)(F)F)c3o2)cn1` [Compound 685, (E)-3-(6-aminopyridin-3-yl)-N-((5-(5-(4,4-difluoropiperidine-1-carbonyl)thiophen-2-yl)-7-(trifluoromethyl)benzofuran-2-yl)methyl)acrylamide], the IC50 (3T3 cells; read-out: MTT Assay IC50, 3T3) was > 10 µM, the IC50 (MS751 cells; [1]) was 0.1 to 5 µM and the IC50 (Z138 cells; [2]) was 0.1 to 5 µM.

`Nc1ccc(/C=C/C(=O)NCc2cc3cc(-c4cnc(C(=O)N5CCOCC5)nc4)cc(Cl)c3o2)cn1` [Compound 546, (E)-3-(6-Aminopyridin-3-yl)-N-((7-chloro-5-(2-(morpholine-4-carbonyl)pyrimidin-5-yl)benzofuran-2-yl)methyl)acrylamide] was tested, and the IC50 (3T3 cells; read-out: MTT Assay IC50 3T3) was > 10 µM, the IC50 (MS751 cells; [3]) was 0.1 to 5 µM and the IC50 (Z138 cells; read-out: MTT Assay IC50 Z-138) was 0.1 to 5 µM.

For `N#Cc1cccc(-c2cc(-c3ccc(C(=O)N4CCC(F)(F)CC4)cc3)cc3cc(CNC(=O)/C=C/c4ccc(N)nc4)oc23)c1` [Compound 732, (E)-3-(6-aminopyridin-3-yl)-N-((7-(3-cyanophenyl)-5-(4-(4,4-difluoropiperidine-1-carbonyl)phenyl)benzofuran-2-yl)methyl)acrylamide], the IC50 (3T3 cells; read-out: MTT Assay IC50, 3T3) was 0.1 to 5 µM, the IC50 (MS751 cells; [1]) was < 0.1 µM and the IC50 (Z138 cells; [2]) was < 0.1 µM.

In the case of `Nc1ccc(/C=C/C(=O)NCc2cc3cc(-c4ccc(C(=O)N5CCC(F)(F)CC5)cc4)cc(-c4ccc(F)c(F)c4)c3o2)cn1` [Compound 737, (E)-3-(6-aminopyridin-3-yl)-N-((7-(3,4-difluorophenyl)-5-(4-(4,4-difluoropiperidine-1-carbonyl)phenyl)benzofuran-2-yl)methyl)acrylamide], the IC50 (3T3 cells; read-out: MTT Assay IC50, 3T3) is reported as 0.1 to 5 µM, the IC50 (MS751 cells; [1]) is reported as < 0.1 µM and the IC50 (Z138 cells; [2]) is reported as < 0.1 µM.
